Five compounds from article PMC8850458, “The AUTOTAC chemical biology platform for targeted protein degradation via the autophagy-lysosome system” (Nature Communications, 2022) can be followed below.

The test system of one series is ACHN cells. As to the kind of experiment: WST-based cell viability assay in ACHN cells. Conditions: for WST assay viability, AVG % / WST assay raw reading / WST assay viability relative to con = 100: ACHN; for WST assay raw reading / WST assay viability relative to con = 100: duplicates.
The test system of series [1] is U87-MG glioblastoma cells. As to the kind of experiment: Wound healing assay in U87-MG cells. Conditions: Fig. S4j. Also noted: wound area, single experiment / wound area, Average: unit not given here. Type of series: cell-based. How it is done: To analyze cell migration in two dimensions, U-87 MG or ACHN cells were plated to a monolayer. Cells were scratched with a sterile 10 μl pipette tip and the debris was removed using medium. Cells were treated with compounds and incubated for different time to monitor cell behavior. Photographs were obtained using a microscope at different time point.

A further series deals with Ub^+ and p62^+ puncta. As to the kind of experiment: ICC of Ub (FK2) and p62 puncta in HeLa cells. It counts as cell-based. Conditions: Fig. 4i. As for the experimental part: Fig. 4 Targeted autophagic delivery and degradation of misfolded protein cargoes using AUTOTACs with aggregate-binding warhead. a A model illustrating the mode of action of aggregate-targeting AUTOTAC. b Chemical structures of PBA-1105, PBA-1106, Anle138b-F105 and PBA-1105b. c In vitro p62 oligomerization assay in HEK293T cells incubated with the indicated compounds in (b). d WB in HEK293T cells treated with MG132 (1 μM, 24 h), HCQ (10 μM, 24 h), PBA-1105, YTK-1105, and PBA (1 μM, 24 h). e Identical to (d), but with Anle-F105. f ICC of HeLa cells treated with HCQ (10 μM, 24 h), MG132 (2 μM, 18 h) or both in the presence of PBA-1106, YOK-1106 or PBA (1 μM, 24 h). Scale bar, 10 μm. g Quantification of (f) (n = 3, 50 cells). h ICC of HeLa cells treated with Anle138b-F105 (1 μM, 24 h). Scale bar, 10 μm. i Quantification of (h) (n = 3, 50 cells). When indicated, n = 3 biologically independent experiments each counting 50 cells. Data are presented as mean values ± SD where relevant. P-values (from a two-sided unpaired t test): ***P < 7.66E−05. Source data are provided with this paper.
Cells were cultured on coverslips coated with poly-L-lysine (Sigma) to observe cellular localization of proteins. Using 4% paraformaldehyde in PBS (pH 7.4), the cells were fixed for 15 min at room temperature and washed three times for 5 min with PBS. After fixing, the cells were permeabilized with 0.5% Triton X-100 in PBS solution for 15 min and washed three times with PBS for 5 min. The cells were blocked containing 2% BSA in PBS solution for 1 h at room temperature. Subsequently, the cells were incubated with primary antibody diluted in 2% BSA/PBS solution overnight at 4 °C, followed by washing the cells three times for 10 min with PBS and incubated with Alexa Fluor-conjugated secondary antibody diluted in 2% BSA/PBS for 30 min at room temperature. Using a DAPI-containing mounting medium (Vector Laboratories), the coverslips were mounted on glass slides. Confocal images were taken by laser scanning confocal microscope 510 Meta (Zeiss) and analyzed by Zeiss LSM Image Browser (ver. 4.2.0.121). […] Quantification results are shown as mean ± S.D. or S.E.M. of three independent experiments

A further series deals with tauP301L (Homo sapiens, UniProt P10636, P618L). As to the kind of experiment: WB degradation of tauP301L in SH-SY5Y-tauP301L cells. Type of series: cell-based. Conditions: densitometry, dosage degradation, SH-SY5Y-Tau-TiFC; for Tau normalized to GAPDH and control, AVG %: average of N=3. As for the experimental part: (§1) Adherent cells were washed with phosphate-buffered saline (PBS) and cell pellets were lysed in SDS-based sample buffer (277.8 mM Tris-HCI, pH 6.8, 4.4% LDS, 44.4% (v/v) glycerol) containing beta-mercaptoethanol. Alternatively, cell pellets or protein supernatants were lysed in 5X Laemmli sample buffer. Whole-cell lysates were separated using SDS-PAGE, and transferred onto polyvinyllidene difluoride membranes at 100 V for 2 h at 4 °C. The membrane was incubated with a blocking solution consisting 4% skim milk in PBS solution for 30 min at room temperature and incubated with primary antibodies overnight, followed by incubation with host-specific HRP-conjugated secondary antibodies (1:10000 dilution). For signal detection, the membrane was developed with a mixture of ECL solution (Thermo Fisher Scientific) using X-ray films. Densitometry of developed bands was measured and analyzed with ImageJ (NIH, Bethesda).
Chain of tauP301L (P10636 1-441 isoform P10636-8 P301L): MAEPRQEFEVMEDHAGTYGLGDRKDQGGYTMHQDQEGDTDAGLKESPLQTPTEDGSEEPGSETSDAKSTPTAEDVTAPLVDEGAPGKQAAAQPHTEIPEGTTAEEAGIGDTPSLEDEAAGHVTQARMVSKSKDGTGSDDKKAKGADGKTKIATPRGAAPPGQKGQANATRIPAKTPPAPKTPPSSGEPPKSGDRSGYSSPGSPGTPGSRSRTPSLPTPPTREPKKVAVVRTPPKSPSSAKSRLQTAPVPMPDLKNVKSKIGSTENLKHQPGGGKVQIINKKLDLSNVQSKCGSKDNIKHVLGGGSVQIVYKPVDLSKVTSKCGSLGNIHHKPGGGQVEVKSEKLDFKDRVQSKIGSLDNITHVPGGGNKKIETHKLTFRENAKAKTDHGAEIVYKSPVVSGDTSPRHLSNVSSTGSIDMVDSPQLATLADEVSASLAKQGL

For series [2], the target named is T1, methionine aminopeptidase 2 (MetAP2) (Homo sapiens, UniProt P50579).
T1 construct: Targeted autophagic degradation of endogenous oncoproteins by AUTOTAC; endogenous in cells; host or cells: HEK293 / HEK293T, U87-MG
T1 sequence (P50579 whole entry): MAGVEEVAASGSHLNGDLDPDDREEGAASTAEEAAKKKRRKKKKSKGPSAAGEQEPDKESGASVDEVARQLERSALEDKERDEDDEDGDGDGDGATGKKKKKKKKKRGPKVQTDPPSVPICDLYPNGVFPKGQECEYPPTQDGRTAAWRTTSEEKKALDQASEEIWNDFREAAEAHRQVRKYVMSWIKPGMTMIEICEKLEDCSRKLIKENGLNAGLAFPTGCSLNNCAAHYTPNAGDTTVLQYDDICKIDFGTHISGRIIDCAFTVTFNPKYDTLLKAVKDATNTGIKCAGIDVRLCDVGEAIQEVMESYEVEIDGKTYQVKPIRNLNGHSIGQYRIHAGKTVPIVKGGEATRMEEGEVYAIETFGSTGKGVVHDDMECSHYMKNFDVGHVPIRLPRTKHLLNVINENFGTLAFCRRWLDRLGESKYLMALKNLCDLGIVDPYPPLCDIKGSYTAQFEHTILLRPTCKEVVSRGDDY
As to the kind of experiment: Western blot degradation of MetAP2. It counts as cell-based. Conditions: 293T, 24 h. As for the experimental part: as §1
Background: Immunoblotting shows a protein as a band on a membrane.

[3] abbreviates: 4h, relative to 0h, con 63.7844.
The mark [4] stands for this setting: 12h, relative to 0h, con 49.0497.
The mark [5] stands for this setting: 24h, relative to 0h, con 11.2855.

“And” between values parts separate entries of the source, which are not always exact repeats. Equal values may be shown once.

Usually IC50 stands for the concentration at which inhibition is half-maximal. Take `Oc1ccc(-c2c(-c3ccccc3)nn3c(C(F)(F)F)cc(C(F)(F)F)nc23)cc1` [PHTPP, reference compound]: in the series on ACHN cells (ACHN cells, WST-based viability assay, read-out: cytotoxicity IC50), the IC50 stood at 18 µM. The “WST assay viability, AVG %” value in the series on ACHN cells (0.01uM) amounted to 98.8656%; in the series with ACHN cells (0.1uM) it was 95.5201%; with ACHN cells (1uM), 90.0981%; in the series on ACHN cells (10uM), 86.1757%; in the series on ACHN cells (50uM), 10.8441%; in the series with ACHN cells (100uM), 2.365%. The “WST assay raw reading” value is 1.014 and 0.955 in the series on ACHN cells (0.01uM); 0.951 and 0.96 with ACHN cells (0.1uM); 0.95 and 0.867 in the series on ACHN cells (1uM); 0.866 and 0.883 in the series on ACHN cells (10uM); 0.239 and 0.204 with ACHN cells (50uM); 0.151 and 0.145 with ACHN cells (100uM). The “WST assay viability relative to con = 100” value is 102.269 and 95.4624 with ACHN cells (0.01uM); 95.001 and 96.0392 in the series on ACHN cells (0.1uM); 94.8856 and 85.3105 in the series with ACHN cells (1uM); 85.1952 and 87.1563 in the series on ACHN cells (10uM); 12.8629 and 8.825 in the series on ACHN cells (50uM); 2.711 and 2.019 in the series on ACHN cells (100uM).

For the compound `COC1C(OC(=O)C=CC=CC=CC=CC(=O)NCCOCCOCCNCc2cccc(OCc3ccccc3)c2)CCC2(CO2)C1C1(C)OC1CC=C(C)C` (stereo not shown) [fuma-105], the “wound area, single experiment” value in series [1] (0h) was 1322200 and 1143900 and 1293400; in series [1] (4h), 1229909 and 1112400 and 1025300; in series [1] (12h) it was 999235 and 1073250 and 992572; in series [1] (24h), 562341 and 671624 and 616277. Also, the “wound area, Average %” value in series [1] (0h (reference = 100)) is 100%; in series [1] (setting [3]), 89.576%; in series [1] (setting [4]) it was 81.5283%; in series [1] (setting [5]) it was 49.2151%. Further, the “wound area, Average” value is 1253167 in series [1] (0h, con 1278325); 1122536 in series [1] (4h, con 815372); 1021686 in series [1] (12h, con 627015); 616747 in series [1] (24h, con 144265).

Turning to `COC1C(OC(=O)C=CC=CC=CC=CC(=O)O)CCC2(CO2)C1C1(C)OC1CC=C(C)C` (stereo not shown) [fuma], the “wound area, single experiment” value in series [1] (0h) is 1171666 and 1405232 and 1275616; in series [1] (4h) it was 1044299 and 1099925 and 1033344; in series [1] (12h), 806233 and 764432; in series [1] (24h), 429520 and 509220. The “wound area, Average %” value is reported as 100% in series [1] (0h (reference = 100)), 82.4804% in series [1] (setting [3]), 60.6123% in series [1] (setting [4]) and 37.5848% in series [1] (setting [5]). Besides, the “wound area, Average” value is 1284171 in series [1] (0h, con 1278325); 1059189 in series [1] (4h, con 815372); 778366 in series [1] (12h, con 627015); 482653 in series [1] (24h, con 144265).

As to `Fc1ccc(COc2cccc(CNCCOCCOCCNc3cccc(-c4cc(-c5ccc6c(c5)OCO6)n[nH]4)c3)c2)cc1` [Anle.-F105], the “FK2 (Ub) / p62 colocalization, AVG of cells per 50 cells” value with Ub^+ and p62^+ puncta (con vs Anle.-F105) turned out to be 44.6667. The “FK2 (Ub) / p62 colocalization, percentage AVG” value with Ub^+ and p62^+ puncta (con vs Anle.-F105) was 89.3333 percentage. Further, in the series on Ub^+ and p62^+ puncta (con vs Anle.-F105, count out of 50 cells), the “FK2 (Ub) / p62 colocalization, cells counted per 50 cells (individual replicates)” value was 44 and 42 and 48. For the same compound, the “Tau normalized to GAPDH and control, AVG %” value at tauP301L (1 nM) amounted to 89.5946%; at tauP301L (10 nM), 39.4372%; on tauP301L (100 nM), 27.9865%; on tauP301L (1 uM), 22.4452%; on tauP301L (2.5uM), 20.2653%; on tauP301L (5uM) it was 9.605%. In addition, the “Tau normalized to GAPDH and control, AVG %” value at tauP301L (10uM) stood at 11.8682%. Moreover, at tauP301L (2.5uM, read-out: (Tau normalized to GAPDH) normalized to control, percentage (individual replicates N=1, N=2, N=3)), the remaining activity at 2.5 µM was found to be 14.5%. For the same compound, on tauP301L (5uM, read-out: (Tau normalized to GAPDH) normalized to control, percentage (individual replicates N=1, N=2, N=3)), the remaining activity at 5 µM stood at 9.88%. On tauP301L (10uM, read-out: (Tau normalized to GAPDH) normalized to control, percentage (individual replicates N=1, N=2, N=3)), the remaining activity at 10 µM came to 10.3%.

As to `CO[C@@H]1[C@H](OC(=O)/C=C/C=C/C=C/C=C/C(=O)O)CC[C@]2(CO2)[C@H]1[C@@]1(C)O[C@@H]1CC=C(C)C` [Fumagillin, reference compound], the “MetAP2 normalized to control, AVG %” value in series [2] (2.5uM) was found to be 147.616%; in series [2] (10uM), 145.983%.
